Patent US6358942B1, “Phenyloxazolidinones having a c-c bond 4-8 membered heterocyclic rings” (Pharmacia & Upjohn Company, priority 1995, dated 2002)

test system: Staphylococcus aureus or Streptococcus species; experiment: Murine Assay: in vivo antimicrobial activity, survival of mice infected intraperitoneally with bacteria; conditions: Table 1; female mice; treatment 1 h and 5 h after infection, oral intubation or subcutaneous; survival over six days; probit analysis of mortality ratios
Procedure: Antimicrobial activity was tested in vivo using the Murine Assay procedure. Groups of female mice (six mice of 18-20 grams each) were injected intraperitoneally with bacteria which were thawed just prior to use and suspended in brain heart infusion with 4% brewers yeast (Staphylococcus aureus) or brain heart infusion (Streptococcus species). Antibiotic treatment at six dose levels per drug was administered one hour and five hours after infection by either oral intubation or subcutaneous routes. Survival was observed daily for six days. ED50 values based on mortality ratios were calculated using probit analysis. The subject compounds are compared against well-known antimicrobials vancomycin and U-100592 as controls. See “Upjohn Oxazolidinone Antibacterial Agent”, posters presented at the 35th Interscience Conference on Antimicrobial Agents and Chemotherapy.

Compound	ED50 [mg/kg]
COC(=O)N1CC(C)(c2ccc(N3C[C@H](CNC(C)=O)OC3=O)cc2F)C1 [Example 3]	5.00
COCC(=O)N1CC(C)(c2ccc(N3C[C@H](CNC(C)=O)OC3=O)cc2F)C1 [Example 4, (S)-N-[[3-[3-Fluoro-4-[1-(methoxyacetyl)-3-(3-methyl) -azetidinyl]-phenyl]-2-oxo-5-oxazolidinyl]methyl]-acetamide]	>20.00
CC(=O)NC[C@H]1CN(c2ccc(C3(C)CN(C=O)C3)c(F)c2)C(=O)O1 [Example 5, (S)-N-[[3-[3-Fluoro-4-[1-(formyl)-3-(3-methyl)-azetidinyl]-phenyl]-2-oxo-5-oxazolidinyl]methyl]-acetamide]	3.60
CC(=O)NC[C@H]1CN(c2ccc(C3(C)CN(C(=O)C(Cl)Cl)C3)c(F)c2)C(=O)O1 [Example 6, (S)-N-[[3-[3-Fluoro-4-[1-(dichloroacetyl)-3-(3-methyl) -azetidinyl]-phenyl]-2-oxo-5-oxazolidinyl]methyl]-acetamide]	>20.00
CC(=O)NC[C@H]1CN(c2ccc(C3(C)CN(C(C)=O)C3)c(F)c2)C(=O)O1 [Example 10, (S)-N-[[3-[3-Fluoro-4-[1-acetyl-3-(3-methyl)-azetidinyl]-phenyl]-2-oxo-5-oxazolidinyl]methyl]-acetamide]	20.00
CC(=O)NC[C@H]1CN(c2ccc(C3(C)CN(CCF)C3)c(F)c2)C(=O)O1 [Example 11, (S)-N-[[3-[3-Fluoro-4-[1-(2-fluoroethyl)-3-(3-methyl) -azetidinyl]-phenyl]-2-oxo-5-oxazolidinyl]methyl]-acetamide]	>20.00
CC(=O)NC[C@H]1CN(c2ccc(C3(C)CN(CC#N)C3)c(F)c2)C(=O)O1 [Example 12, (S)-N-[[3-[3-Fluoro-4-[1-(cyanomethyl)-3-(3-methyl) -azetidinyl]-phenyl]-2-oxo-5-oxazolidinyl]methyl]-acetamide]	20.00
CC(=O)NC[C@H]1CN(c2ccc(C3(C)CN(c4ncc([N+](=O)[O-])s4)C3)c(F)c2)C(=O)O1 [Example 13, (S)-N-[[3-[3-Fluoro-4-[1-(5-nitro-2-thiazolyl)-3-(3-methyl) -azetidinyl]-phenyl]-2-oxo-5-oxazolidinyl]methyl]-acetamide]	>10.00
CC(=O)NC[C@H]1CN(c2ccc(C3(C)CN(C(=O)CO)C3)c(F)c2)C(=O)O1 [Example 16, (S)-N-[[3-[3-Fluoro-4-[1-(hydroxyacetyl)-3-(3-methyl)azetidinyl]-phenyl]-2-oxo-5-oxazolidinyl]methyl]-acetamide]	17.00

same assay, conditions: Table 1; female mice; treatment 1 h and 5 h after infection, oral intubation or subcutaneous; survival over six days; probit analysis of mortality ratios; read-out: ED50

Compound	ED50 [mg/kg]
CC(=O)NC[C@H]1CN(c2ccc(C3CCN(C(=O)CO)CC3)cc2)C(=O)O1 [Example 19, (S)-(−)-N-[[3-[4-[1-(Hydroxyacetyl)-4-piperidinyl]phenyl]-2-oxo-5-oxazolidinyl]methyl]acetamide]	6.8
CC(=O)NC[C@H]1CN(c2ccc(C3CCN(C(=O)COCc4ccccc4)CC3)c(F)c2)C(=O)O1 [Example 21, (S)-(−)-N-[[3-[4-[1-[(Benzyloxy)acetyl]-4-piperidinyl]-3-fluorophenyl]-2-oxo-5-oxazolidinyl]methyl]acetamide]	> 20
CC(=O)NC[C@H]1CN(c2ccc(C3CCN(C(=O)CO)CC3)c(F)c2)C(=O)O1 [Example 22, (S)-(−)-N-[[3-[4-[1-(Hydroxyacetyl)-4-piperidinyl]-3-fluorophenyl]-2-oxo-5-oxazolidinyl]methyl]acetamide]	2.3

same assay, conditions: Table 2; female mice; treatment 1 h and 5 h after infection, oral intubation or subcutaneous; survival over six days; probit analysis of mortality ratios; read-out: ED50

Compound	ED50 [mg/kg]
CC(=O)NC[C@H]1CN(c2ccc(C3=CC[S+]([O-])C3)c(F)c2)C(=O)O1 (stereo partly drawn) [68(a), (5S)-N-[[3-[3-Fluoro-4-(2,5-dihydro-1-oxido-3-thienyl)-phenyl]-2-oxo-5-oxazolidinyl]methyl]acetamide]	3.5
CC(=O)NC[C@H]1CN(c2ccc(C3=CCS(=O)(=O)C3)c(F)c2)C(=O)O1 [69(a), (S)-N-[[3-[3-Fluoro-4-(2,5-dihydro-1,1-dioxido-3-thienyl)-phenyl]-2-oxo-5-oxazolidinyl]methyl]acetamide]	10
